Among the data in ChEMBL document CHEMBL3217717, “Synthesis and antiproliferative activity of novel erythromycin derivatives” (Medchemcomm, 2010) are Activity and IC50 values, retold here.

Test [1] is described as follows: Cell cycle arrest in human HT1080 cells assessed as accumulation at G0/G1 phase after 24 hrs by propidium iodide staining-based flow cytometric analysis. Type of test: functional. Particulars: HT-1080.
Test [2] in a line: Cytotoxicity against human SGC7901 cells assessed as growth inhibition after 48 hrs by MTT assay. The format is functional, cell-based. Particulars: SGC-7901, 48 h.
The subject of another test is KB. In words: Cytotoxicity against human KB cells assessed as growth inhibition after 48 hrs by MTT assay. The format is functional, cell-based.
Test [3] can be described thus: Cytotoxicity against human HT1080 cells assessed as growth inhibition after 48 hrs by MTT assay. To be noted: HT-1080, 48 h. The format is functional, cell-based.
Test [4] can be described thus: Cell cycle arrest in human HT1080 cells assessed as accumulation at G0/G1 phase at 0.5 times IC50 after 24 hrs by propidium iodide staining-based flow cytometric analysis (reference value: 49.18%). The format is functional. To be noted: HT-1080.
The nature of test [5]: Cell cycle arrest in human HT1080 cells assessed as accumulation at S phase at 0.5 times IC50 after 24 hrs by propidium iodide staining-based flow cytometric analysis (reference value: 21.01%). The format is functional. To be noted: HT-1080.
Test [6] can be described thus: Cell cycle arrest in human HT1080 cells assessed as accumulation at G2/M phase at 0.5 times IC50 after 24 hrs by propidium iodide staining-based flow cytometric analysis (reference value: 23.71%). Type of test: functional. Particulars: HT-1080.
Test [7] can be described thus: Cell cycle arrest in human HT1080 cells assessed as accumulation at subG1 phase at 0.5 times IC50 after 24 hrs by propidium iodide staining-based flow cytometric analysis (reference value: 0.82%). To be noted: HT-1080. Type of test: functional.
Test [8] can be described thus: Cell cycle arrest in human HT1080 cells assessed as accumulation at G0/G1 phase at IC50 after 24 hrs by propidium iodide staining-based flow cytometric analysis (reference value: 49.18%). The format is functional. To be noted: HT-1080.
A short description of test [9]: Cell cycle arrest in human HT1080 cells assessed as accumulation at S phase at IC50 after 24 hrs by propidium iodide staining-based flow cytometric analysis (reference value: 21.01%). Type of test: functional. To be noted: HT-1080.
Test [10] in a line: Cell cycle arrest in human HT1080 cells assessed as accumulation at G2/M phase at IC50 after 24 hrs by propidium iodide staining-based flow cytometric analysis (reference value: 23.71%). To be noted: HT-1080. The format is functional.
Test [11] can be described thus: Cell cycle arrest in human HT1080 cells assessed as accumulation at subG1 phase at IC50 after 24 hrs by propidium iodide staining-based flow cytometric analysis (reference value: 0.82%). Type of test: functional. To be noted: HT-1080.
Test [12] in a line: Cell cycle arrest in human HT1080 cells assessed as accumulation at G0/G1 phase at 2 times IC50 after 24 hrs by propidium iodide staining-based flow cytometric analysis (reference value: 49.18%). Type of test: functional. Particulars: HT-1080.
A short description of test [13]: Cell cycle arrest in human HT1080 cells assessed as accumulation at S phase at 2 times IC50 after 24 hrs by propidium iodide staining-based flow cytometric analysis (reference value: 21.01%). Type of test: functional. Particulars: HT-1080.
Test [14] in a line: Cell cycle arrest in human HT1080 cells assessed as accumulation at G2/M phase at 2 times IC50 after 24 hrs by propidium iodide staining-based flow cytometric analysis (reference value: 23.71%). The format is functional. Particulars: HT-1080.
Test [15] can be described thus: Cell cycle arrest in human HT1080 cells assessed as accumulation at subG1 phase at 2 times IC50 after 24 hrs by propidium iodide staining-based flow cytometric analysis (reference value: 0.82%). Type of test: functional. Particulars: HT-1080.
Test [16] in a line: Cell cycle arrest in human HT1080 cells assessed as accumulation at G0/G1 phase at 0.5 times IC50 after 48 hrs by propidium iodide staining-based flow cytometric analysis (reference value: 41.60%). Type of test: functional. Particulars: HT-1080.
The nature of test [17]: Cell cycle arrest in human HT1080 cells assessed as accumulation at S phase at 0.5 times IC50 after 48 hrs by propidium iodide staining-based flow cytometric analysis (reference value: 15.11%). The format is functional. To be noted: HT-1080.
Test [18] is described as follows: Cell cycle arrest in human HT1080 cells assessed as accumulation at G2/M phase at 0.5 times IC50 after 48 hrs by propidium iodide staining-based flow cytometric analysis (reference value: 31.39%). Type of test: functional. Particulars: HT-1080.
Test [19] in a line: Cell cycle arrest in human HT1080 cells assessed as accumulation at subG1 phase at 0.5 times IC50 after 48 hrs by propidium iodide staining-based flow cytometric analysis (reference value: 1.86%). The format is functional. To be noted: HT-1080.
Test [20] can be described thus: Cell cycle arrest in human HT1080 cells assessed as accumulation at G0/G1 phase at IC50 after 48 hrs by propidium iodide staining-based flow cytometric analysis (reference value: 41.60%). The format is functional. To be noted: HT-1080.
The nature of test [21]: Cell cycle arrest in human HT1080 cells assessed as accumulation at S phase at IC50 after 48 hrs by propidium iodide staining-based flow cytometric analysis (reference value: 15.11%). The format is functional. Particulars: HT-1080.
Test [22] can be described thus: Cell cycle arrest in human HT1080 cells assessed as accumulation at G2/M phase at IC50 after 48 hrs by propidium iodide staining-based flow cytometric analysis (reference value: 31.39%). Type of test: functional. To be noted: HT-1080.
Test [23] in a line: Cell cycle arrest in human HT1080 cells assessed as accumulation at subG1 phase at IC50 after 48 hrs by propidium iodide staining-based flow cytometric analysis (reference value: 1.86%). Particulars: HT-1080. Type of test: functional.
The nature of test [24]: Cell cycle arrest in human HT1080 cells assessed as accumulation at G0/G1 phase at 2 times IC50 after 48 hrs by propidium iodide staining-based flow cytometric analysis (reference value: 41.60%). Type of test: functional. Particulars: HT-1080.
A short description of test [25]: Cell cycle arrest in human HT1080 cells assessed as accumulation at S phase at 2 times IC50 after 48 hrs by propidium iodide staining-based flow cytometric analysis (reference value: 15.11%). Particulars: HT-1080. Type of test: functional.
A short description of test [26]: Cell cycle arrest in human HT1080 cells assessed as accumulation at G2/M phase at 2 times IC50 after 48 hrs by propidium iodide staining-based flow cytometric analysis (reference value: 31.39%). The format is functional. To be noted: HT-1080.
Test [27] can be described thus: Cell cycle arrest in human HT1080 cells assessed as accumulation at subG1 phase at 2 times IC50 after 48 hrs by propidium iodide staining-based flow cytometric analysis (reference value: 1.86%). The format is functional. Particulars: HT-1080.
Test [28] is described as follows: Cell cycle arrest in human HT1080 cells assessed as accumulation at G0/G1 phase after 24 to 48 hrs by propidium iodide staining-based flow cytometric analysis. Type of test: functional. Particulars: HT-1080.
Test [29] in a line: Cell cycle arrest in human HT1080 cells assessed as accumulation at G0/G1 phase at 0.5 to 2 times IC50 by propidium iodide staining-based flow cytometric analysis. Type of test: functional. Particulars: HT-1080, TDE = time-dependent effect.

With `CC[C@H]1OC(=O)[C@H](C)[C@@H](O[C@H]2C[C@@](C)(OC)[C@@H](O)[C@H](C)O2)[C@H](C)[C@@H](O[C@@H]2O[C@H](C)C[C@H](N(C)CCN(C)[C@H]3C[C@@H](C)O[C@@H](O[C@@H]4[C@@H](C)[C@H](O[C@H]5C[C@@](C)(OC)[C@@H](O)[C@H](C)O5)[C@@H](C)C(=O)O[C@H](CC)[C@@](C)(O)[C@H](O)[C@@H](C)/C(=N\O)[C@H](C)C[C@@]4(C)O)[C@@H]3O)[C@H]2O)[C@](C)(O)C[C@@H](C)/C(=N/O)[C@H](C)[C@@H](O)[C@]1(C)O`, the Activity entry was “Dose-dependent effect” in test [1]; 66% in test [4]; 16.5% in [5]; 14.4% in [6]; 1.41% in test [7]; 71.2% in test [8]. Moreover, the Activity was found to be 13.9% in test [9]; 11.5% in test [10]; 2.01% in [11]; 66.6% in test [12]; 11.1% in [13]; 12.5% in [14]. The Activity in [15] was 8.14%; in [16], 80%; in test [17], 6.94%; in test [18], 10.1%; in [19] it was 1.34%; in test [20], 77.3%. The Activity was 9.35% in test [21]; 10.8% in [22]; 1.34% in test [23]; 48.7% in [24]; 14.8% in test [25]; 17.9% in test [26]. Besides, the Activity in [27] was determined as 15.7%. For the same compound, the IC50 in test [2] worked out at 21.7 µM; in the test with KB it was 6.2 µM; in test [3], 8.6 µM.

`CC[C@H]1OC(=O)[C@H](C)[C@@H](O[C@H]2C[C@@](C)(OC)[C@@H](O)[C@H](C)O2)[C@H](C)[C@@H](O[C@@H]2O[C@H](C)C[C@H](N(C)CCN(C)[C@H]3C[C@@H](C)O[C@@H](O[C@@H]4[C@@H](C)[C@H](O[C@H]5C[C@@](C)(OC)[C@@H](O)[C@H](C)O5)[C@@H](C)C(=O)O[C@H](CC)[C@@](C)(O)[C@H](O)[C@@H](C)/C(=N\O)[C@H](C)C[C@@]4(C)OC)[C@@H]3O)[C@H]2O)[C@](C)(OC)C[C@@H](C)/C(=N/O)[C@H](C)[C@@H](O)[C@]1(C)O`: the IC50 stood at 7.8 µM in [2], 4.4 µM with KB and 5.3 µM in [3]. The Activity in test [4] was found to be 62%; in [5] it was 18.1%; in test [6], 17.4%; in test [7] it was 0.6%; in test [8], 62.7%; in test [9] it was 15.9%. Besides, the Activity was 18.5% in test [10]; 0.77% in [11]; 75.1% in test [12]; 10.8% in test [13]; 11.9% in test [14]; 0.85% in test [15]. For the same compound, the Activity was 67.6% in test [16]; 13.7% in test [17]; 15.3% in test [18]; 0.75% in test [19]; 71.9% in [20]; 12.6% in [21]. Besides, the Activity is 12.8% in test [22]; 0.77% in test [23]; 74.5% in test [24]; 11.5% in test [25]; 10.1% in test [26]; 2.47% in test [27]. For the same compound, the Activity result in test [28] is “Dose-dependent effect”; in test [29] it was “tde”.

Turning to `CC[C@H]1OC(=O)[C@H](C)[C@@H](O[C@H]2C[C@@](C)(OC)[C@@H](O)[C@H](C)O2)[C@H](C)[C@@H](O[C@@H]2O[C@H](C)C[C@H](N(C)CCN(C)[C@H]3C[C@@H](C)O[C@@H](O[C@@H]4[C@@H](C)[C@H](O[C@H]5C[C@@](C)(OC)[C@@H](O)[C@H](C)O5)[C@@H](C)C(=O)O[C@H](CC)[C@@](C)(O)[C@H](O)[C@@H](C)C(=O)[C@H](C)C[C@@]4(C)O)[C@@H]3O)[C@H]2O)[C@](C)(O)C[C@@H](C)C(=O)[C@H](C)[C@@H](O)[C@]1(C)O`, the half-maximal inhibitory concentration (IC50) in test [2] is 18.3 µM; in the test with KB, 37.3 µM; in [3], > 100 µM.

As to `CC[C@H]1OC(=O)[C@H](C)[C@@H](O)[C@H](C)[C@@H](O[C@@H]2O[C@H](C)C[C@H](N(C)CCN(C)[C@H]3C[C@@H](C)O[C@@H](O[C@@H]4[C@@H](C)[C@H](O)[C@@H](C)C(=O)O[C@H](CC)[C@@](C)(O)[C@H](O)[C@@H](C)C(=O)[C@H](C)C[C@@]4(C)OC)[C@@H]3O)[C@H]2O)[C@](C)(OC)C[C@@H](C)C(=O)[C@H](C)[C@@H](O)[C@]1(C)O`, the IC50 (in test [2]; in the test on KB; in test [3]) was > 100 µM throughout.
